Measured values reported in US20080262049A1, “Therapeutic Agent for Hematopoietic Tumor” (KYOWA HAKKO KOGYO CO., LTD., priority 2005, published 2008).
Where a name gives a salt, the structure may show the parent alone.

Assays:
[1] = test system: human acute lymphoblastic leukemia RS4;11 cells; assay: Cell growth inhibition test against hematopoietic tumor cell lines (XTT), RS4;11; assay type: cell-based; conditions: 72 hours culture with compound, read-out: growth inhibitory activity, GI50 value
Excerpt: (§1) As hematopoietic tumor cell lines, human acute lymphoblastic leukemia RS4;11 cells (ATCC No. CRL-1873), human chronic myeloid leukemia K-562 cells (ATCC No. CCL-243), and human multiple myeloma NCI-H929 cells (ATCC No. CRL-9068) were used. For the culture of the cells, RPMI 1640 Medium (Invitrogen, catalog No. 11875-093) containing 10% fetal bovine serum (Invitrogen, catalog No. 10099-141), 10 mmol/L 4-(2-hydroxyethyl)-1-piperazinethanesulfonic acid (HEPES) buffer (ICN Biomedicals, catalog No. 1688449), 1 mmol/L sodium pyruvate (Invitrogen, catalog No. 11360-070), 4.5 g/L glucose (Sigma-Aldrich, catalog No. G8769), 100 units/mL penicillin (Invitrogen, catalog No. 15140-122) and 100 μg/mL streptomycin (Invitrogen, catalog No. 15140-122) was used. The cells were cultured at 37° C. in a 5% carbon dioxide atmosphere.
(§2) RS4;11 cells (20000 cells/well), K-562 cells (1000 cells/well), or NCI-H929 cells (15000 cells/well) were seeded in each well of 96-well plates (Nunc, catalog No. 167008), and cultured overnight. Test compounds diluted stepwise were added, and the cells were further cultured for 72 hours (final volume: 100 μL/well). Fifty μL XTT labeling mixture of Cell Proliferation Kit II (XTT) (Roche Diagnostics, catalog No. 1465015) was added to each well, and the plates were incubated at 37° C. After 4 hours, absorbance at 490 nm (reference wavelength: 655 nm) was measured with a plate reader (Molecular Device, SpectraMax 340PC^384). Growth ratios of the cells in the wells treated with the test compound was calculated based on the growth ratio of the cells in the control well treated with solvent (dimethyl sulfoxide (DMSO)) for 72 hours, which was defined as 100%.

[2] = test system: human chronic myeloid leukemia K-562 cells; assay: Cell growth inhibition test against hematopoietic tumor cell lines (XTT), K-562; assay type: cell-based; conditions: K562, 72 hours culture with compound, read-out: growth inhibitory activity, GI50 value
Excerpt: as §1, §2

[3] = test system: human acute myeloid leukemia MV-4-11 cells; assay: Cell growth inhibition test on acute myeloid leukemia cells (XTT), MV-4-11; assay type: cell-based; conditions: MV4-11, same manner as Test Example 1, read-out: growth inhibitory activity, GI50 value
Procedure: as §2
(§3) As cancer cell lines, human acute myeloid leukemia MV-4-11 cells (ATCC No. CRL-9591) and human non-Hodgkin's lymphoma SR cells (ATCC No. CRL-2262) were used. The cells were cultured at 37° C. in a 5% carbon dioxide atmosphere by using the mediums mentioned below, respectively.
(§4) In the same manner as that of Test Example 1, the cells were seeded (8000 to 16000 cells/well, respectively) in each well of 96-well plates (Nunc, catalog No. 167008), and growth ratios of the cells treated with test compounds were calculated. Measurement of absorbance was performed at 3 to 4 hours after the addition of the XTT labeling mixture.

[4] = test system: human multiple myeloma NCI-H929 cells; assay: Cell growth inhibition test against hematopoietic tumor cell lines (XTT), NCI-H929; assay type: cell-based; conditions: 72 hours culture with compound, read-out: growth inhibitory activity, GI50 value
Excerpt: as §1, §2

[5] = test system: human non-Hodgkin's lymphoma SR cells; assay: Cell growth inhibition test on non-Hodgkin's lymphoma cells (XTT), SR; assay type: cell-based; conditions: same manner as Test Example 1, read-out: growth inhibitory activity, GI50 value
Procedure: as §2, §3, §4

[6] = target: T1, recombinant human Eg5 motor domain protein (Homo sapiens, UniProt P52732); assay: Eg5 enzyme inhibition test (ATPase activity); assay type: biochemical; conditions: for inhibition of the ATPase activity of Eg5 (in words): 30° C., 30 minutes, absorbance at 360 nm; for Eg5 inhibitory activity compared with the corresponding racemic mixture (in words): versus Compounds 3, 4, 6, 7, 20, 14, 9, 8, the respectively corresponding racemic mixtures
T1 construct: A plasmid expressing the motor domain of human Eg5 was constructed; made in house; host or cells: Escherichia coli BL21 (DE3)
T1 sequence (P52732 18-359 limits assumed): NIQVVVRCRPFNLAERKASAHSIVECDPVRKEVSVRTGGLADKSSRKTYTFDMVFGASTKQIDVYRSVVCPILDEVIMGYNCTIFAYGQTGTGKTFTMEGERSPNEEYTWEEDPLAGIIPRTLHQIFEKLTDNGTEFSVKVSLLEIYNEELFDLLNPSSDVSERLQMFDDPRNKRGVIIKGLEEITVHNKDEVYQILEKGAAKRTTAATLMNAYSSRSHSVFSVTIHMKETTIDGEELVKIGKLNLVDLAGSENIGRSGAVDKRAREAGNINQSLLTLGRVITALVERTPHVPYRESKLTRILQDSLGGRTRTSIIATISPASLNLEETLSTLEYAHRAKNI
Procedure: A recombinant human Eg5 motor domain protein was prepared by referring to the literature [Biochemistry, Vol. 35, p. […] A plasmid expressing the motor domain of human Eg5 was constructed, and transformed into Eseherichia coli BL21 (DE3). The transformant was cultured at 25° C., and when the OD600 reached 0.74, isopropyl-β-D-thiogalactoside was added at a final concentration of 0.5 mmol/L. The transformant was further cultured for 4 hours, and then the culture medium was centrifuged to collect the cells. The cells were suspended in a buffer and ultrasonicated, and then the sonicated solution was centrifuged to recover the supernatant. The supernatant was purified by cation exchange column chromatography to obtain a partially purified sample. Furthermore, the partially purified sample was purified by gel filtration column chromatography to obtain a finally purified sample.
Measurement of the ATPase activity of Eg5 was carried out by referring to the literatures [EMBO Journal, Vol. 13, p. […] Solution A was dispensed into each well of a 96-well plate as 45 μL portions. Solution B was used to serially dilute a test compound. The diluted test compound solutions in a volume of 30 μL were mixed with Solution A added beforehand in each well of the 96-well plate to start the enzymatic reaction. The enzymatic reaction was performed at 30° C. for 30 minutes. […] The relative activity was calculated to calculate IC50 value.

SMILES | melting point | GI50 [1] | GI50 [2] | GI50 [3] | GI50 [4] | GI50 [5] | inhibition of the ATPase activity of Eg5 (in words) [6] | Eg5 inhibitory activity compared with the corresponding racemic mixture (in words) [6]
CC(C)(C)C(=O)NC1=NN(C(=O)C(C)(C)C)C(CN)(c2ccccc2)S1 (stereo not shown) (as salt: hydrochloride) [Compound j, N-[5-Aminomethyl-4-(2,2-dimethylpropionyl)-5-phenyl-4,5-dihydro-1,3,4-thiadiazol-2-yl]-2,2-dimethylpropanamide] | 175 to 182 °C | – | – | – | – | – | – | –
CC(C)(C)C(=O)N1N=C(N2CCCC2=O)SC1(CCNS(C)(=O)=O)c1ccccc1 (single isomer, unassigned; (-)) [Compound c, (−)-N-{2-[3-(2,2-Dimethylpropionyl)-5-(2-oxopyrrolidin-1-yl)-2-phenyl-2,3-dihydro-1,3,4-thiadiazol-2-yl]ethyl}methanesulfonamide] | 107 to 110 °C | – | – | – | – | – | – | –
CN(C)CCCS(=O)(=O)NCC1(c2ccccc2)SC(NC(=O)C(C)(C)C)=NN1C(=O)C(C)(C)C (single isomer, unassigned; (-)) [Compound n, (−)-N-[5-(3-Dimethylaminopropanesulfonylaminomethyl)-4-(2,2-dimethylpropionyl)-5-phenyl-4,5-dihydro-1,3,4-thiadiazol-2-yl]-2,2-dimethylpropanamide] | 92 to 95 °C | < 10 µM | < 10 µM | < 10 µM | < 10 µM | < 10 µM | – | –
CCC(=O)N1N=C(N2CCCC2=O)SC1(CCNS(C)(=O)=O)c1ccccc1 (single isomer, unassigned; (-)) [Compound e, (−)-N-{2-[5-(2-Oxopyrrolidin-1-yl)-2-phenyl-3-propionyl-2,3-dihydro-1,3,4-thiadiazol-2-yl]ethyl}methanesulfonamide] | 188 to 191 °C | < 10 µM | < 10 µM | < 10 µM | < 10 µM | < 10 µM | inhibited the ATPase activity of Eg5 in a concentration-dependent manner | stronger inhibitory activities
CN(C)CCS(=O)(=O)NCC1(c2ccccc2)SC(NC(=O)C(C)(C)C)=NN1C(=O)C(C)(C)C (single isomer, unassigned; (-)) [Compound m, (−)-N-[5-(2-Dimethylaminoethanesulfonylaminomethyl)-4-(2,2-dimethylpropionyl)-5-phenyl-4,5-dihydro-1,3,4-thiadiazol-2-yl]-2,2-dimethylpropanamide] | 101 to 104 °C | < 10 µM | < 10 µM | < 10 µM | < 10 µM | < 10 µM | – | –
CC(=O)N1N=C(N2CCCC2=O)SC1(CCNS(C)(=O)=O)c1ccccc1 (stereo not shown) [Compound g, N-{2-[3-Acetyl-5-(2-oxopyrrolidin-1-yl)-2-phenyl-2,3-dihydro-1,3,4-thiadiazol-2-yl]ethyl}methanesulfonamide] | 137 to 140 °C | – | – | – | – | – | – | –
CC(C)(C)C(=O)NC1=NN(C(=O)C(C)(C)C)C(CCCC(=O)NCCO)(c2ccccc2)S1 (single isomer, unassigned) [Compound o, 4-[3-(2,2-Dimethylpropionyl)-5-(2,2-dimethylpropionylamino)-2-phenyl-2,3-dihydro-1,3,4-thiadiazol-2-yl]-N-(2-hydroxyethyl)butanamide] | – | < 10 µM | < 10 µM | < 10 µM | < 10 µM | < 10 µM | inhibited the ATPase activity of Eg5 in a concentration-dependent manner | stronger inhibitory activities
CC(=O)N1N=C(NC(=O)C(C)(C)C)SC1(CCNS(C)(=O)=O)c1ccccc1 (single isomer, unassigned; (-)) [Compound f, (−)-N-[4-Acetyl-5-(2-methanesulfonylaminoethyl)-5-phenyl-4,5-dihydro-1,3,4-thiadiazol-2-yl]-2,2-dimethylpropanamide] | 187 to 190 °C | – | – | – | – | – | – | –
CCNCCS(=O)(=O)NCCC1(c2ccccc2)SC(NC(=O)C(C)(C)C)=NN1C(=O)C(C)(C)C (single isomer, unassigned) [Compound i, N-{4-(2,2-Dimethylpropionyl)-5-[2-(2-ethylaminoethanesulfonylamino)-ethyl]-5-phenyl-4,5-dihydro-1,3,4-thiadiazol-2-yl}-2,2-dimethylpropanamide] | – | < 10 µM | < 10 µM | < 10 µM | < 10 µM | < 10 µM | inhibited the ATPase activity of Eg5 in a concentration-dependent manner | stronger inhibitory activities
CC(=O)N1N=C(N2CCCCC2=O)SC1(CCNS(C)(=O)=O)c1ccccc1 (single isomer, unassigned; (-)) [Compound h, (−)-N-{2-[3-Acetyl-5-(2-oxopiperidino)-2-phenyl-2,3-dihydro-1,3,4-thiadiazol-2-yl]ethyl}methanesulfonamide] | 169 to 171 °C | < 10 µM | < 10 µM | < 10 µM | < 10 µM | < 10 µM | inhibited the ATPase activity of Eg5 in a concentration-dependent manner | stronger inhibitory activities
